Experimental data from patent publication US12121522B2, “Methods of treating cancer with an mTOR inhibitor” (Revolution Medicines, Inc., priority 2022, dated 2024).

Legend:
Mouse plasma exposure = type: in vivo; conditions: fu 0.001-0.004
[1] = Clinical safety (TEAEs, TRAEs, SAEs, DLTs), study RMC-5552-001
Description: RMC-5552 is currently being evaluated as a monotherapy in a FIH, dose-escalation, Phase 1/1b study (RMC-5552-001) in adult subjects with advanced relapsed/refractory solid tumors (see Example 3 for additional study protocol details.) The purpose of this study is to evaluate safety, tolerability, preliminary efficacy, PK, and pharmacodynamics of RMC-5552 monotherapy. The primary objective is to characterize the safety and tolerability of RMC-5552 monotherapy and to define the MTD and the Recommended Phase 2 Dose (RP2DS) and schedule for RMC-5552 monotherapy in subjects with relapsed/refractory solid tumors.
Adverse events (AEs) were based on the Medical Dictionary for Regulatory Activities (MedDRA) preferred terms and included the grouped preferred term of stomatitis/mucositis using mucosal inflammation, oral pain, and stomatitis. […] Of note, the grouped term of stomatitis/mucositis comprised events of (based on MedDRA PT) mucosal inflammation, oral pain, and stomatitis.
In the Dose-Escalation Phase, assessment of safety and tolerability will be the primary endpoints and will be directly measured by the incidence of dose-limiting toxicities (DLTs), treatment-emergent adverse events (TEAEs), and serious adverse events (SAEs). The starting dose of RMC-5552 will be 1.6 mg once weekly (QW) via intravenous (IV) infusion. The first cycle of treatment (i.e., first 21 days after treatment initiation) constitutes the DLT evaluation period.
A DLT is defined as a toxicity that is considered at least possibly related to study intervention, occurs within the first 21 days of treatment initiation (i.e., during Cycle 1), and meets at least 1 of the following criteria (with severity graded according to Common Terminology Criteria for Adverse Events [CTCAE] v5): […]

mucositis/stomatitis = assay: Mouthwash prophylaxis of mucositis in patients on RMC-5552; type: in vivo, human; conditions: RMC-5552 8 to 12 mg IV weekly; without TM N=20, with TM N=7
Experimental: Table 9 presents data from all patients (N=27) treated either with dexamethasone mouthwash alone, or dexamethasone mouthwash plus tacrolimus mouthwash at 8 mg (N=16), 10 mg (N=8), and 12 mg (N=3) IV QW. Median time on treatment (min, max) was 2.6 months for patients treated at 8 mg IV QW with dexamethasone mouthwash alone (N=13), 1.2 months for patients treated at 8 mg IV QW with dexamethasone mouthwash plus tacrolimus mouthwash (N=3), 0.9 months for patients treated at 10 mg IV QW with dexamethasone mouthwash alone (N=5), 2.0 months for patients treated at 10 mg IV QW with dexamethasone mouthwash plus tacrolimus mouthwash (N=3), 9.1 months for patients treated at 12 mg IV QW with dexamethasone mouthwash alone (N=2), and 0.4 months for patients treated at 12 mg IV QW with dexamethasone mouthwash plus tacrolimus mouthwash (N=1). […] Among all dose levels, the frequency of Grade 3 or worse events, frequency and severity of mucositis, and frequency of AEs leading to dose modification were lower in those patients treated with tacrolimus mouthwash.
Subjects received dexamethasone alone or dexamethasone plus tacrolimus mouthwash(es). […] At baseline (C1D1 predose), subjects rinse with the mouthwash(es) once at least 15 minutes prior to the first dose of study intervention. […]

[2] = 10 mg QW (2-hour infusion) 21-Day cycle (N = 5)

## CO[C@H]1C[C@@H]2CC[C@@H](C)[C@@](O)(O2)C(=O)C(=O)N2CCCC[C@H]2C(=O)O[C@H]([C@H](C)C[C@@H]2CC[C@@H](OC(=O)NCCOCCOCCOCCOCCOCCOCCOCCOCCC(=O)N3CCc4cc(Cn5nc(-c6ccc7oc(N)nc7c6)c6c(N)ncnc65)ccc4C3)[C@H](OC)C2)C[C@@H](O)[C@H](C)/C=C(\C)[C@@H](O)[C@@H](OC)C(=O)[C@H](C)C[C@H](C)/C=C/C=C/C=C/1C [RMC-5552]
Mouse plasma exposure; 1 mg/kg
  Unbound AUC0-last, mean mouse exposure: 21 to 84 nM·h
  Unbound Cmax, mean mouse exposure: 2 to 8 nM
Mouse plasma exposure; 3 mg/kg
  Unbound AUC0-last, mean mouse exposure: 53 to 210 nM·h
  Unbound Cmax, mean mouse exposure: 3.7 to 14.7 nM
[1]; 1.6 mg QW 21-Day cycle (N = 2)
  Treatment-emergent SAE Wound infection, number (%) of subjects: 0 subjects
[1]; 3 mg QW 21-Day cycle (N = 3)
  Treatment-emergent SAE Wound infection, number (%) of subjects: 0 subjects
[1]; 6 mg QW 21-Day cycle (N = 12)
  Treatment-emergent SAE Wound infection, number (%) of subjects: 0 subjects
[1]; 8 mg QW 21-Day cycle (N = 15)
  Treatment-emergent SAE Wound infection, number (%) of subjects: 1 subjects
[1]; [2]
  Treatment-emergent SAE Urinary tract infection, number (%) of subjects: 0 subjects
  Treatment-emergent SAE Wound infection, number (%) of subjects: 0 subjects
[1]; 12 mg QW 21-Day cycle (N = 2)
  Treatment-emergent SAE Wound infection, number (%) of subjects: 0 subjects
[1]; Overall (N = 39)
  Treatment-emergent SAE Urinary tract infection, number (%) of subjects: 1 subjects
  Treatment-emergent SAE Wound infection, number (%) of subjects: 1 subjects
[1]; human, in vivo
  DLT rate: (3.0%)
  Grade ≥3 TEAE: anemia: 15.4%
  Grade ≥3 TEAE: dysphagia: 5.1%
  Grade ≥3 TEAE: fatigue: 5.1%
  Grade ≥3 TEAE: rash (grouped term): 5.1%
  Grade ≥3 TEAE: stomatitis/mucositis: 10.3%
  Grade ≥3 TEAE: urinary tract infection: 5.1%
  Number of subjects with any SAE (treatment-emergent): 14 subjects
  SAEs assessed as treatment-related by investigators: No SAEs were assessed as treatment-related
  TEAE any grade: abdominal pain: 20.5%
  TEAE any grade: anemia: 25.6%
  TEAE any grade: decreased appetite: 43.6%
  TEAE any grade: diarrhea: 23.10%
  TEAE any grade: dyspnea: 28.20%
  TEAE any grade: fatigue: 61.5%
  TEAE any grade: headache: 20.5%
  TEAE any grade: nausea: 41.0%
  TEAE any grade: rash (grouped term): 28.20%
  TEAE any grade: vomiting: 30.80%
  TRAE: decreased appetite: 25%
  TRAE: diarrhea: 25%
  TRAE: fatigue: 25%
  TRAE: mucositis/stomatitis: 35%
  TRAE: nausea: 25%
  Treatment-emergent SAE Acute kidney injury, number (%) of subjects: 1 subjects
  Treatment-emergent SAE Anaemia, number (%) of subjects: 1 subjects
  Treatment-emergent SAE Anemia along with occlusion, number (%) of subjects: 1 subjects
  Treatment-emergent SAE Atrial fibrillation, number (%) of subjects: 1 subjects
  Treatment-emergent SAE Dehydration, number (%) of subjects: 1 subjects
  Treatment-emergent SAE Dyspnea, number (%) of subjects: 1 subjects
  Treatment-emergent SAE Embolism, number (%) of subjects: 1 subjects
  Treatment-emergent SAE Face Oedema, number (%) of subjects: 1 subjects
  Treatment-emergent SAE Failure to Thrive, number (%) of subjects: 1 subjects
  Treatment-emergent SAE Fatigue, number (%) of subjects: 1 subjects
  Treatment-emergent SAE Hypotension, number (%) of subjects: 1 subjects
  Treatment-emergent SAE Large intestinal obstruction, number (%) of subjects: 1 subjects
  Treatment-emergent SAE Lower gastrointestinal hemorrhage, number (%) of subjects: 1 subjects
  Treatment-emergent SAE Oedema peripheral, number (%) of subjects: 1 subjects
  Treatment-emergent SAE Pain in extremity, number (%) of subjects: 1 subjects
  Treatment-emergent SAE Pleural effusion, number (%) of subjects: 1 subjects
  Treatment-emergent SAE Pneumonia aspiration, number (%) of subjects: 1 subjects
  Treatment-emergent SAE Pneumonia, number (%) of subjects: 1 subjects
  Treatment-emergent SAE Pneumothorax, number (%) of subjects: 1 subjects
  Treatment-emergent SAE Rash maculopapular, number (%) of subjects: 1 subjects
  Treatment-emergent SAE Rectourethral fistula, number (%) of subjects: 1 subjects
  Treatment-emergent SAE Small intestinal obstruction, number (%) of subjects: 1 subjects
  Treatment-emergent SAE Small intestinal perforation, number (%) of subjects: 1 subjects
  Treatment-emergent SAE Stomatitis/mucositis, number (%) of subjects: 1 subjects
  Treatment-emergent SAE Vascular occlusion, number (%) of subjects: 1 subjects
  dose-limiting toxicities: no dose-limiting toxicities
  drug-related adverse event: decreased appetite: 32%
  drug-related adverse event: fatigue: 41%
  drug-related adverse event: nausea: 36%
  drug-related adverse event: stomatitis/mucositis: 41%
  drug-related adverse event: vomiting: 23%
  event of interest: edema peripheral: 10.3%
  event of interest: hyperglycemia: 7.7%
  event of interest: rash maculo-papular: 17.9%
  median duration of resolved stomatitis/mucositis events: 12.0 days
  median time to first onset of stomatitis/mucositis: 12.5 days
  n/N (DLT rate): 1/33
  related Grade 4 or 5 adverse events: No related Grade 4 or 5 adverse events
  treatment-emergent hyperglycemia, patients: 6.8%
mucositis/stomatitis
  rate of grade 3 mucositis/stomatitis: 15%
  rate of mucositis/stomatitis: 75%
